According to patent US20220381657A1, “METHOD FOR PREPARING BIOLOGICAL MATERIAL HAVING EXCELLENT LIGHT-TRANSMITTING PROPERTY” (RIKEN, priority 2016, published 2022):
Read-outs that look alike come from different tables or passages of the source.

How the values were obtained:
[1] = for OD400: Table 1; for 400 nm: OD at 400 nm of the chemical
[2] = tested on: fixed brain tissue suspension; test: 1st delipidation assay: solubilization of fixed brain tissue suspension, turbidity at 600 nm; parameters: species or system mice
Method: Specifically, brains taken out of mice were sheared with a utility knife and then were disrupted by ultrasonication. To each of the resultant suspensions, an equal volume of 8% PFA solution was added to perform fixation at 4° C. for 1 hour. The resultant mixture was centrifuged to remove the supernatant, and the fixed brain tissue was washed with PBS for 3 times. PBS was added so as to obtain 2 mL of a fixed brain tissue suspension per brain. The fixed brain tissue suspension was diluted by 3.5 folds. To 20 μL of the resultant suspension, 130 μL of each 10 wt % chemical was added and was shaken at 37° C. overnight. Thus obtained mixed solutions were subjected to absorbance (turbidity) measurement at 600 nm. It is expected that a chemical solution which reduces the turbidity of a fixed brain suspension allows reducing light scattering by solubilizing lipids, which act as a scattering factor, in the brain tissue.

bovine coagulated blood = test: Decoloring screening: heme eluted from bovine coagulated blood (OD420-OD700); conditions: decolorization; for 700 nm calibrated 420 nm Average: OD420 calibrated by OD700; for integrated value 500-700 nm Average: integrated absorbance 500-700 nm
Method: A high-throughput screening system for evaluating the decoloring ability of various compounds was constructed. The screening system involved adding an aqueous solution of each compound to bovine coagulated blood and then measuring the absorbance of heme collected in the supernatant.
Specifically, to bovine blood, an equal amount of 8% PFA solution was added, and reacted at 4° C. overnight. The mixed liquid was centrifuged at 1500×g for 5 minutes, and the supernatant containing PFA was discarded. Then, the same amount of PBS as the original volume of blood was added to prepare a coagulated blood sample. To 150 μL of 10 wt % aqueous solution of each compound, 50 μL of the coagulated blood sample was added, and reacted at 37° C. overnight. The reaction solution was centrifuged at 1500×g for 5 minutes, and then 100 μL of the supernatant was added to a plate so as to be subjected to absorbance measurement. A sample which is suspended in water instead of being dissolved in the water has a weak decoloring effect, but none the less has a high absorbance value. […]

[3] = Table 1, 10 wt % chemical, fixed mouse brain suspension, 37° C. overnight, PBS = 1.000

Molecule	OD400 [1]	pH (Table 1)	1st delipidation assay Relative OD600 [2, 3]	400 nm [1]	Fluorescence quench Average (Serius; relative fluorescence)	700 nm calibrated 420 nm Average (bovine coagulated blood)	integrated value 500-700 nm Average (bovine coagulated blood)	pH ([…])	1st delipidation assay Relative OD600 [2]	Fluorescence quench Average (Serius)
CCCCCCCCCC(=O)N(C)CC(=O)[O-].[Na+] [#0703, N-Decanoylsarcosine sodium salt]	0.047	7.0	0.223	–	–	–	–	–	–	–
CN(C)C(=N)N(C)C [#1444, 1,1,3,3-Tetramethylguanidine]	0.072	12.4	0.124	0.072	0.14	1.38	1.15	12.4	–	–
CC1(C)CC(N)CC(C)(CN)C1 (stereo not shown) [#1602, Isophoronediamine]	0.051	10.8	0.190	0.051	0.53	2.08	1.26	10.8	–	–
Cc1ccnc(C)c1 [#1312, 2,4-Lutidine]	0.051	7.6	0.325	0.051	0.84	2.47	2.59	7.6	–	–
Polyethylene glycol mono-4-octylphenyl ether [#1103]	–	–	–	–	–	–	–	–	0.184	–
CCCCCCCCCS(=O)(=O)[O-].[Na+] [#0870, Sodium 1-nonanesulfonate]	0.047	6.8	0.247	–	–	–	–	–	–	–
CN1CCCC1 [#1295, 1-Methylpyrrolidine]	0.085	10.5	0.325	–	–	–	–	–	–	–
CC(C)(C)N(CCO)CCO [#0390, N-tert- Butyldiethanolamine]	0.052	12.7	0.318	–	–	–	–	–	–	–
N.O=C(O)C(F)(F)C(F)(F)C(F)(F)C(F)(F)C(F)(F)C(F)(F)C(F)(F)F [#1162, Ammonium pentadecafluorooctanoate]	–	–	0.318	–	–	–	–	–	–	–
CN1C2CCC1CC(O)C2 (stereo not shown) [#1462, Tropine]	–	–	0.292	–	–	–	–	–	–	–
NCCCCCCO [#0007, 6-Amino-1-hexanol]	–	–	–	0.093	0.22	2.66	1.76	11.9	–	–
CCCCCCCCCCCCOS(=O)(=O)[O-].[Li+] [#1310, Lithium dodecyl sulfate]	–	–	0.155	–	–	–	–	–	–	–
CCCCCCCCCCS(=O)(=O)[O-].[Na+] [#0625, Sodium 1-decanesulfonate]	0.046	5.9	0.325	–	–	–	–	–	–	–
NCCCCO [#0006]	–	–	–	0.06	0.64	1.22	0.82	12.3	–	–
C[C@H](CCC(=O)[O-])[C@H]1CC[C@H]2[C@@H]3CC[C@@H]4C[C@H](O)CC[C@]4(C)[C@H]3C[C@H](O)[C@]12C.[Na+] [#1507, Sodium deoxycholate]	0.054	7.9	–	0.054	1.03	1.27	1.03	7.9	–	–
Isopropylamine [#1006]	–	–	0.318	–	–	–	–	–	–	–
OCC(O)c1ccccc1 (stereo not shown) [#1074, 1-Phenylethane-1,2-diol]	0.05	9.5	0.336	–	–	–	–	–	–	–
NCC(O)CN [#1062]	–	–	–	0.054	0.67	1.13	0.80	12.8	–	–
CC(C)CCN [#1038, Isoamylamine]	0.055	9.6	0.247	–	–	–	–	–	–	–
CCCCCCCCCCCCOS(=O)(=O)[O-].[Na+] [#1035, Sodium dodecyl sulfate]	0.048	6.3	–	0.048	1.15	1.28	1.32	6.3	–	–

Molecule	OD400 [1]	pH (Table 1)	1st delipidation assay Relative OD600 [2, 3]	400 nm [1]	Fluorescence quench Average (Serius; relative fluorescence)	700 nm calibrated 420 nm Average (bovine coagulated blood)	integrated value 500-700 nm Average (bovine coagulated blood)	pH ([…])	1st delipidation assay Relative OD600 [2]	Fluorescence quench Average (Serius)
Tween ® 80 [#1460]	0.065	5.7	0.095	–	–	–	–	–	–	–
CCCCCCCCCCCC[N+](C)(C)CCCS(=O)(=O)[O-] [#0694]	–	–	–	0.055	1.09	2.24	2.53	8.4	–	–
CCCCCCCCCCCS(=O)(=O)[O-].[Na+] [#1419, Sodium 1-undecanesulfonate]	0.056	5.9	0.124	–	–	–	–	–	–	–
C[C@H](CCC(=O)O)[C@H]1CC[C@H]2[C@@H]3[C@H](O)C[C@@H]4C[C@H](O)CC[C@]4(C)[C@H]3C[C@H](O)[C@]12C [#0566, Sodium Cholate]	–	–	–	–	–	–	–	–	0.254	–
C1CCNCC1 [#1097, Piperidine]	–	–	0.166	–	–	–	–	–	–	–
CC(=O)O.CCCCCCCCCCCCN [#0627, Dodecylamine acetate]	0.053	10.3	–	0.053	1.05	2.21	1.74	10.3	–	–
Triton ™ X-100 [reference compound]	–	–	0.240	–	–	–	–	–	–	–
CCCCCCCCCCCC[N+](C)(C)C.[Cl-] [#1021, Dodecyltrimethyl- ammonium chloride]	–	–	0.194	–	–	1.96	1.70	–	–	1.11
OCCN(CCO)CCN(CCO)CCO [#1537, N,N,N′,N′-Tetrakis(2-hydroxyethyl) ethylenediamine]	–	–	–	0.048	0.66	1.29	1.63	11.7	–	–
Isobutylamine [#1043]	–	–	0.251	–	–	–	–	–	–	–
CCN(CC)CCN [#0779, N,N-Diethyl-ethylenediamine]	–	–	–	0.051	0.70	1.39	0.81	13.6	–	–
OCCCC1CCN(CCO)CC1 [#1226, 1-(2-Hydroxyethyl)-4-(3-hydroxypropyl) piperidine]	–	–	–	0.05	0.76	2.20	2.29	14.1	–	–
COc1ccc(CO)cc1OC [#1422, Veratryl alcohol]	–	–	–	0.05	0.89	1.46	1.28	6.1	–	–
Dodecene-1 LAS [#0672]	–	–	–	–	–	1.45	1.41	–	0.152	1.08
CC(O)CN(CCN(CC(C)O)CC(C)O)CCN(CC(C)O)CC(C)O (stereo not shown) [#1105, N,N,N′,N″,N″-Pentakis(2-hydroxypropyl) diethylene-triamine]	–	–	–	0.057	0.74	1.20	1.05	13.2	–	–
Nonidet P-40 [#1511]	–	–	–	–	–	–	–	–	0.193	–
CC(O)CN(CCN(CC(C)O)CC(C)O)CC(C)O (stereo not shown) [Quadrol ®, reference compound]	0.048	12.4	0.569	–	–	–	–	–	–	–
CCCCNCCN [#0422, N-Butylethylenediamine]	0.05	12.7	0.307	–	–	–	–	–	–	–
OCCCCCBr [#1367]	–	–	–	0.055	−0.01	1.48	0.06	2.9	–	–
NC(=O)c1cccnc1 [#0855, nicotinamide]	–	–	–	0.052	0.75	2.63	2.45	10.4	–	–
